Structures are written as SMILES.

Turning to `CC1(C)C(C(=O)Nc2ccccc2)C1(C)C`, the melting point (as a rule, the temperature, or range, at which the solid turns liquid) turned out to be 149 °C.
As for `Cc1noc(C)c1-c1ccc(OC2SCC(O)C(O)C2O)cc1` (stereo unspecified), the figure is 175 to 179 °C; as for `COc1cccc(CNC(=O)c2nc(OC)c3ccccc3n2)c1`, 129 to 130 °C; as for `Cc1csc(=S)n1-c1ccc(F)cc1N`, 138 °C.
As for `S=C=Nc1ccc(Sc2nc3ccccc3s2)cc1`, the figure is 84.5 to 86 °C; as for `CCCN(CCCN1C(=O)c2ccccc2S1(=O)=O)C1CCc2cccc(OC)c2C1` (stereo unspecified), 131 °C.
Then `C#CCOc1c(OC)cccc1-c1nc2ncccc2[nH]1`, with 238 °C.
Compound `CC(C)Cn1c(=O)n(C)c(=O)c2c(SCCCN=[N+]=[N-])c(Cc3cccc4ccccc34)sc21` had a melting point of 94 to 96 °C.
`O=C(O)CNC(=O)c1c(F)cccc1[N+](=O)[O-]` gave a melting point of 148 to 150 °C.
Then `COc1ccccc1N1CCN(C(=O)c2ccccc2C(c2ccc(OC(C)C)cc2)c2ccc(OC(C)C)cc2)CC1`, with 120 to 121 °C.
`COc1ccc(C2CNC(=O)O2)cc1O` (stereo unspecified) yielded a melting point of 157 to 160 °C.
Then `COc1ccc(C2=NN(c3ccc(C(=O)O)cc3)C(=O)[C@H]3CC=CC[C@@H]23)cc1OC` (relative stereo), with 198 to 199 °C; and `CCCc1nc2ccc(N(C)C)nn2c1S(N)(=O)=O`, with 215 to 217 °C.
Take `CCCc1cc(=O)oc2cc(OC(=O)C(C)(C)C)cc(OC(=O)C(C)(C)C)c12`: the melting point was 110 to 112 °C.
Then `CC(=O)Oc1ccc(-c2ccc3cc(C(=O)O)ccc3c2)cc1`, with 256 to 258 °C; and `O=C(O)c1ccc2cc(-c3ccc(OCCCO)c(C45CC6CC(CC(C6)C4)C5)c3)ccc2c1`, with 277 to 279 °C.
As for `CC(C)Oc1c(-c2ccc(S(C)(=O)=O)cc2)cnn(Cc2ccccc2)c1=O`, the figure is 109 to 111 °C.
Then `[N-]=[N+]=N[C@H]1C[C@H](C(=O)Nc2ccc(N3CCOCC3=O)cc2)N(C(=O)Nc2ccc(Cl)cc2)C1`, with 145 °C; and `CC(C)(C)CN1C(=O)C(=O)N(c2cccnc2)C1=S`, with 111 to 113 °C; and `CC(C)(C)OC(=O)N1CCO[C@@H]2Cc3c(O)cccc3C[C@H]21`, with 203 to 205 °C.
In the case of `O=C(c1ccc(F)cc1)C1CCN(C(=O)CCc2ccc(OCc3ccccc3)cc2OCc2ccccc2)CC1`, the melting point lay in the range of 140 to 141 °C.
As for `CC1=C(C)C(=O)C(C(CCCCCCC(=O)O)c2cccnc2)=C(C)C1=O` (stereo unspecified), the figure is 113 to 114 °C.
As for `Cc1nc2cc3c(cc2c(=O)[nH]1)C(N(C)c1ccc(C(=O)NC(CCc2nnn[nH]2)C(=O)O)nc1)CC3` (racemic), the figure is 248 to 250 °C; as for `O=C(CCc1cccnc1)Nc1cccc(-c2ccnc3c(C(=O)c4cccs4)cnn23)c1`, above 200 °C; as for `CNc1ccc(/C=C/C(=O)O)cn1`, 227 °C.
In turn, `Cc1cc(Cc2ccccc2)c(NC(=O)NCc2ccccc2)c(=O)n1CC(=O)O` showed a melting point of 176 °C.
As for `CC(=O)Nc1cccc2c(OC(C)=O)c(S(=O)(=O)NC(C)(C)C)ccc12`, the figure is 203 to 206 °C.
As for `OC(CNc1ccc(Cl)cc1Cl)Cn1ccnc1` (stereo unspecified), the figure is 107 to 109 °C; as for `CC(C)(C)OC(=O)C[C@H](NC(=O)c1cccc(NC(=O)Cc2ccc(C(N)=S)cc2)c1)C(=O)N[C@@H](Cc1ccccc1)C(=O)OC(C)(C)C`, 99 °C.
As for `N#CCN(CC#N)c1nc(Cl)nc(Cl)n1`, the figure is 154 to 158 °C; as for `CCCC1=C(Br)c2cc3c(cc2C1)OCO3`, 96 to 97 °C; as for `O=[N+]([O-])c1cc(-c2nnc(Cl)cc2O)ccc1Cl`, 204 to 209 °C.
Regarding `COC(=O)C[C@@H](CC(=O)C=Cc1c(-c2ccc(F)cc2)c(-c2ccc(F)cc2)c(C(=O)Nc2ccc(S(N)(=O)=O)cc2)n1C(C)C)O[Si](C)(C)C(C)(C)C`, the melting point was 108 to 110 °C.
As to `Cc1c(C(F)(F)F)ncn1-c1ncc(C(F)(F)F)cc1Cl`, the melting point stood at 59.4 °C.
Then `CCn1cc(C(=O)O)c(=O)c2cc(C=NOCC(=O)O)sc21`, with 249 to 250 °C; and `CCOC(=O)NN=Cc1ccc2ccccc2n1`, with 163 to 165 °C.
As for `OCc1cn(Cc2cc(OCc3ccccc3)cc(OCc3ccccc3)c2)cc1-c1ccccc1`, the figure is 115 to 116 °C.
Then `CNC(=O)c1cc2c(cn1)[nH]c1ccccc12`, with 264 to 266 °C; and `CCCc1c(OCCCOc2cccc3c2CCCC3)ccc2c1OC(CCC(=O)O)(CCC(=O)OCC)CC2=O` (stereo unspecified), with 83.5 to 84.5 °C.
In turn, `CCCCOn1nnc2ccc(C(O)c3ccccc3)cc21` (stereo unspecified) yielded a melting point of 89.2 °C.
As for `CCOC(=O)c1cc2c(C)ccc(O)c2[nH]1`, the figure is 211 to 212 °C; as for `O=C(Nc1nc(C(F)(F)F)co1)C1c2ccccc2Oc2c(F)cccc21` (racemic), 233 °C.
For `CC(CS(=O)(=O)c1ccc(-c2ccc3c(c2)OCO3)cc1)N(O)C=O` (stereo unspecified), the melting point lay in the range of 200 to 201 °C.
Then `Clc1ccc2[nH]c(Sc3ccccc3)c(C3=NCCN3)c2c1`, with 178 °C.
Then `O=S1(=O)N=CN(C2CC2)c2c(F)cccc21`, with 151 to 152 °C.
Regarding `CC(c1oc2ccccc2c(=O)c1-c1cccc(F)c1)n1nc(-c2ccc(N3CCOCC3)nc2)c2c(N)ncnc21` (stereo unspecified), the melting point fell in the range of 269 to 271 °C.
Then `O=C(NC(=CC(=O)[C@H](Cc1ccccc1)N(Cc1ccccc1)Cc1ccccc1)Cc1ccccc1)c1ccccc1`, with 131 to 133 °C.
As for `O=C(Nc1ccc(F)cc1)Nn1cnc2ccccc2c1=O`, the figure is 237 to 238 °C.
As for `CC(C)(C#N)c1cc(CO)cc(Cn2cncn2)c1`, the figure is 111 to 113 °C.
In the case of `CC(=O)C1CCC2C3CCC4CC(O)C(OCCC#N)CC4(C)C3C(=O)CC12C` (stereo unspecified), the melting point lay in the range of 194 to 196 °C.
As for `O=S(=O)(F)c1ccc2ccccc2c1`, the figure is 85 to 86 °C; as for `CCOC(=O)C1=C(N)N=C(OCC)C(C(=O)OCC)C1c1cccc([N+](=O)[O-])c1` (stereo unspecified), 129 °C.
For the compound `COc1ccc(C2=NN(Cc3ccccc3C(F)(F)F)C(=O)[C@H]3CCCC[C@@H]23)cc1OC` (relative stereo), the melting point is 87 to 88 °C.
As for `COc1ccc(CC2CCN(C(=O)NC(=O)c3ccc(O)cc3)CC2)cc1`, the figure is 190 °C; as for `O=C1N(CO)CCN1CCN1CCC(c2cn(-c3ccc(F)cc3)c3ccc(Cl)cc23)CC1`, 118 to 119 °C.
Compound `CCc1ccc(N(Cc2ccc(N3CCOCC3)cc2)C(=O)C2CCCc3c(O)cccc32)cc1` (stereo unspecified) displayed a melting point of 200 °C.
As for `O=S(=O)(c1ccc(Br)cc1)N1CCN(c2ccncc2)CC1`, the figure is 199 to 200 °C.
The compound `CC(=O)n1c(=O)sc2c(Cl)cccc21` displayed a melting point of 74 °C.
As for `COc1ccc(S(=O)(=O)C(CCCc2ccccc2)CC(=O)O)cc1OC` (stereo unspecified), the figure is 161 to 162 °C; as for `CC(=O)c1ccc(-c2ccc(F)cc2Cl)c([N+](=O)[O-])c1`, 93 to 95 °C.
Then `N#C/C=C1\CCCCC1n1nc(-c2c(-c3ccccc3)nn3ccccc23)ccc1=O` (stereo unspecified), with 70 to 72 °C; and `CCOC(=O)Cc1c(COC(C)=O)[nH]c(C(=O)OCc2ccccc2)c1C`, with 117 to 119 °C.
The compound `O=c1[nH]ncc2[nH]c(-c3ccc(OC(F)F)c(OC4CC4)c3)c(COC3CCC3)c12` came in with a melting point of 95 to 100 °C.
Then `O=C(Nc1ccc(F)nc1)C1CC1`, with 116 to 117 °C.
Then `Nc1ccc(-n2cnnc2)cc1C(F)(F)F`, with 196 to 198 °C; and `O=[N+]([O-])c1ccccc1N=Nc1ccccc1`, with 139 to 141 °C.
Then `COc1ccc(C(CCC(=O)c2ccccc2)C(=O)c2ccc(OCc3ccccc3)cc2)cc1` (stereo unspecified), with 76 to 78 °C; and `CCC(CC)c1nccc2c(CC(=O)O)cccc12`, with 107 to 109 °C; and `CC(=O)Nc1ccc(C#CCCN2CC=C(c3ccccc3)CC2)nc1`, with 158 to 160 °C.
The compound `O[C@@H](COc1ccccc1)CN(CCc1ccc(OCc2ccccc2)cc1)C[C@@H](O)COc1ccccc1` (racemic) had a melting point of 106 to 110 °C.
Then `Fc1ccc(F)c2c(NCCc3ccc(Oc4ccnc(C(F)(F)F)c4)cc3)ncnc12`, with 95 to 96 °C.
`COc1ccc(CC2CCN(CCS(=O)c3ccc4[nH]c(=O)oc4c3)CC2)cc1` (stereo unspecified) came in with a melting point of 169 to 170 °C.
As for `N#Cc1ccc(C(=O)N2CC2C#N)cc1` (stereo unspecified), the melting point lay within 107 to 110 °C.
For the compound `COc1nc2c(Cl)c(Cl)c(Cl)c(Cl)c2n1COC(CO)CO`, the melting point is 192 °C.
As for `O=C1CCC(N2C(=O)c3cccc(NC(=O)COc4ccccc4)c3C2=O)C(=O)N1` (stereo unspecified), the figure is 236 to 238 °C; as for `O=C(Nc1ccc2c(c1)C(O)CC2)C(F)(F)F` (stereo unspecified), 123 to 124 °C; as for `O=C(O)Cc1ccc(Cl)cc1[N+](=O)[O-]`, 156 to 159 °C.
As to `O=C(NOCCO)c1cc(Cl)c(F)c(F)c1Nc1ccc(I)cc1F`, the melting point came to 180 °C.
Compound `CCOc1ccc2c(c1)C(Cl)Cc1ccc(F)cc1S2` (stereo unspecified) returned a melting point of 110 to 111 °C.
As for `O=C1NC(=O)C(c2ccc(OCCC(c3ccccc3)(c3ccccc3)c3ccccc3)cc2)S1` (stereo unspecified), the figure is 85 to 87 °C; as for `Cc1cccc(C(=O)Nc2c[nH]nc2C(=O)NCCC#N)c1`, 149 to 151 °C; as for `Nc1ccc(C(=O)N2Cc3cccn3Cc3ccccc32)c(Cl)c1`, 210 to 212 °C.
In turn, `CC(=O)c1c(-c2ccccc2)nn(CC2CC2)c(=O)c1Nc1cccc2cccnc12` displayed a melting point of 123 to 125 °C.
Then `Cc1cc(C(=O)N2Cc3ccc(C(=O)NCc4cccnc4)n3Cc3ccccc32)ccc1I`, with 176 to 177 °C; and `O=C1c2ccccc2-c2ccc(Cl)c3cccc1c23`, with 179 to 190 °C.
As for `Cn1c(-c2ccc(N3CCOCC3)cc2)cnc1[C@H](Cc1ccccn1)N(C=O)c1nc2cc(Cl)ccc2s1`, the figure is 96 to 99 °C.

Values taken from a melting point compilation (Tetko et al.; mined from patent text by program, amines drawn as free bases though some values may be those of a salt).
